Read-outs that look alike come from different tables or passages of the source.
Key:
BACE1 = target: T1, BACE1 (Homo sapiens, UniProt P56817); test: Cellular Aβ-lowering assay (Abeta 40 AlphaLISA, HEK293 APP cells); assay type: cell-based; settings: 18-20 hrs incubation, Aβ 40 in culture supernatant, read-out: BACE1 cell act. Aβ40 IC50
T1 construct: endogenous in cells; host or cells: HEK293 APP cells
Procedure: Cellular Aβ-Lowering Assay:
The Abeta 40 AlphaLISA Assay can be used. The HEK293 APP cells were seeded in 96 well Microtiter plates in cell culture medium (Iscove's, plus 10% (v/v) fetal bovine serum, penicillin/streptomycin) to about 80% confluency and the compounds were added at a 3× concentration in ⅓ volume of culture medium (final DMSO concentration was kept at 1% v/v). After 18-20 hrs incubation at 37° C. and 5% CO2 in a humidified incubator, the culture supernatants were harvested for the determination of Aβ 40 concentrations using Perkin-Elmer Human Amyloid beta 1-40 (high specificity) Kit (Cat#AL275C).
In a Perkin-Elmer White Optiplate-384 (Cat#6007290), 2 ul culture supernatants were combined with 2 μl of a 10× AlphaLISA Anti-hAβAcceptor beads + Biotinylated Antibody Anti-Aβ 1-40 Mix (50 μg/mL/5 nM). After 1 hour room temperature incubation, 16 μl of a 1.25× preparation of Streptavidin (SA) Donor beads (25 μg/mL) were added and incubated for 30 minutes in the Dark. Light Emission at 615 nm was then recorded using EnVision-Alpha Reader. Levels of Aβ 40 in the culture supernatants were calculated as percentage of maximum signal (cells treated with 1% DMSO without inhibitor). The IC50 values were calculated using the Excel XLfit software.

[1] = target: T2, cathepsin D (from human liver) (Homo sapiens, UniProt P07339); test: Cathepsin D fluorescent substrate kinetic assay; assay type: biochemical; settings: pH 5.5, substrate WTSVLMAAPC-MR121
T2 construct: cathepsin D (from human liver, Calbiochem) diluted in assay buffer; purchased Calbiochem; host or cells: human liver
T2 sequence (P07339 65-162 limits assumed): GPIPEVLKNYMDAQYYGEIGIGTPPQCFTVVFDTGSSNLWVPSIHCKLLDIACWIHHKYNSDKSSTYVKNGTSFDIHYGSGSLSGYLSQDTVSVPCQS
T2 sequence (P07339 169-412 limits assumed): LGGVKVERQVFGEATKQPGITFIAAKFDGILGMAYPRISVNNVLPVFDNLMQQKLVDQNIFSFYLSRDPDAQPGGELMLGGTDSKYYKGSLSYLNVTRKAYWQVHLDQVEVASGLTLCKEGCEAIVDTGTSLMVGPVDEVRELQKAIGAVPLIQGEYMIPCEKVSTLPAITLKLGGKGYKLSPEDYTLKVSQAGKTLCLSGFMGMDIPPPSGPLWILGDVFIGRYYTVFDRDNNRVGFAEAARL
From the text: (§1) Cathepsin D and Cathepsin E Fluorescent Substrate Kinetic Assays
(§2) The MR121 fluorescence assays described below are based on the fact that MR121 forms a non-fluorescent ground state complex with tryptophan. In solution this formation occurs at millimolar concentrations of tryptophan. The mechanism can be used to design a generic biochemical assay for proteases. A substrate peptide is labeled at the N-terminus with tryptophan and at the C-terminus with the fluorophore MR121 (for cathepsin D the 10 amino acid peptide WTSVLMAAPC-MR121 was used; for cathepsin E, MR121-CKLVFFAEDW was used). In absence of protease activity, the substrates remain intact and the MR121 fluorescence is reduced by the high local Trp-concentration. If the substrates are cleaved by the enzymes the MR121 fluorescence is recovered.
(§3) The fluorescent substrate cathepsin D and cathepsin E kinetic assays were performed at room temperature in 384-well microtiter plates (black with clear flat bottom, non-binding surface plates from Corning) in a final volume of 51 μl. The test compounds were serially diluted in DMSO (15 concentrations, ⅓ dilution steps) and 1 μl of diluted compounds were mixed for 10 min with 40 μl of cathepsin D (from human liver, Calbiochem) diluted in assay buffer (100 mM sodium acetate, 0.05% BSA, pH 5.5; final concentration:200 nM) or with 40 μl of recombinant human cathepsin E (R&D Systems) diluted in assay buffer (100 mM sodium acetate, 0.05% BSA, pH 4.5; final concentration:0.01 nM). After addition of 10 μl of the cathepsin D substrate WTSVLMAAPC-MR121 diluted in cathepsin D assay buffer (final concentration:300 nM) or 10 μl of the cathepsin E substrate MR121-CKLVFFAEDW diluted in cathepsin E assay buffer (final concentration:300 nM), the plates were strongly shaken for 2 minutes. The enzymatic reaction was followed in a plate: vision reader (Perkin Elmer) (excitation wavelength:630 nm; emission:695 nm) for at least 30 minutes in a kinetic measurement detecting an increase of MR121 fluorescence during the reaction time. The slope in the linear range of the kinetic was calculated and the IC50 of the test compounds were determined using a four parameter equation for curve fitting.

CYP2D6 = target: T3, CYP2D6 (Homo sapiens, UniProt P10635); test: CYP inhibition assay, human liver microsomes; assay type: in vitro ADME
T3 construct: 0.2 mg/ml pooled human liver microsomes; from tissue; host or cells: pooled human liver microsomes
T3 sequence (P10635 whole entry): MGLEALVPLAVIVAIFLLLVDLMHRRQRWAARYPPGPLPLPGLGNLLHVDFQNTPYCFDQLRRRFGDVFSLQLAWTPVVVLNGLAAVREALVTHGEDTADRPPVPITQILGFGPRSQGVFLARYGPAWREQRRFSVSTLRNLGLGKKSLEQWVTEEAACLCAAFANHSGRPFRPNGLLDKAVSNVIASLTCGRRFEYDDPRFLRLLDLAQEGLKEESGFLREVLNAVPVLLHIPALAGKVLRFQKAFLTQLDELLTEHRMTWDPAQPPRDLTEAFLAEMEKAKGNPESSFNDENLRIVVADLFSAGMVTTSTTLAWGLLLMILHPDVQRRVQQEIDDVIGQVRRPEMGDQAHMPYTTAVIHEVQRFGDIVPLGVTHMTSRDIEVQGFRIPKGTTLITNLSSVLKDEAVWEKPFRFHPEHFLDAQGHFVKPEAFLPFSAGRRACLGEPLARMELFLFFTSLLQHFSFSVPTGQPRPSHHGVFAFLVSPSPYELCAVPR
Procedure: (§4) Inhibition of cytochromes P450 (CYPs) 2C9, 2D6 and 3A4 was assessed using human liver microsomes and CYP-selective substrate metabolism reactions. 50 μl incubations were made up containing (finally) 0.2 mg/ml pooled human liver microsomes, 5 μM substrate (diclofenac for CYP2C9 [4′hydroxylase], dextromethorphan for CYP2D6 [O-demethylase] or midazolam for CYP3A4 [1′hydroxylase]), 0.25 μL DMSO containing test inhibitor and NADPH regenerating system. Test inhibitor concentrations of 50, 16.7, 5.6, 1.9, 0.6 and 0.2 μM were assessed in singlicate. Incubations were prewarmed to 37° C. for 10 minutes before initiation by addition of NADPH regenerating system. Incubations were quenched after 5 minutes (20 minutes for dextromethorphan) by addition of 50 μl cold acetonitrile containing 20 ng/ml 4-OH-diclofenac-13C6, 20 ng/mL dextrorphan-D3 and 20 ng/mL 1-OH-midazolam-D4. Quenched incubates were stored at −20° C. for at least 1 hour before centrifugation (20,000× g, 20 minutes). Supernatants were removed and diluted 1:1 with water prior to analysis using a RapidFire sample injector system and API4000 mass spectrometer. Peak areas for substrate, metabolite and stable-labelled metabolite standard were determined using MS/MS. The peak area ratios between the metabolite generated by the enzymatic reaction and the internal standard were used in subsequent calculations. The percentage of (DMSO) control activity was calculated for each incubate and IC50 values estimated by non-linear regression. Sulfaphenazole, quinidine or ketoconazole were tested in each CYP2C9, CYP2D6 or CYP3A4 inhibition experiment, respectively, to ensure assay sensitivity and reproducibility. (Validated assays for human cytochrome P450 activities, R. L. Walsky and R. S. Obach, Drug Metabolism and Disposition 32: 647-660, 2004. and S. Fowler and H. Zhang, The AAPS Journal, Vol. 10, No. 2, 410-424, 2008)

CYP2C9 = target: T4, CYP2C9 (Homo sapiens, UniProt P11712); test: CYP inhibition assay, human liver microsomes; assay type: in vitro ADME
T4 construct: 0.2 mg/ml pooled human liver microsomes; from tissue; host or cells: pooled human liver microsomes
T4 sequence (P11712 whole entry): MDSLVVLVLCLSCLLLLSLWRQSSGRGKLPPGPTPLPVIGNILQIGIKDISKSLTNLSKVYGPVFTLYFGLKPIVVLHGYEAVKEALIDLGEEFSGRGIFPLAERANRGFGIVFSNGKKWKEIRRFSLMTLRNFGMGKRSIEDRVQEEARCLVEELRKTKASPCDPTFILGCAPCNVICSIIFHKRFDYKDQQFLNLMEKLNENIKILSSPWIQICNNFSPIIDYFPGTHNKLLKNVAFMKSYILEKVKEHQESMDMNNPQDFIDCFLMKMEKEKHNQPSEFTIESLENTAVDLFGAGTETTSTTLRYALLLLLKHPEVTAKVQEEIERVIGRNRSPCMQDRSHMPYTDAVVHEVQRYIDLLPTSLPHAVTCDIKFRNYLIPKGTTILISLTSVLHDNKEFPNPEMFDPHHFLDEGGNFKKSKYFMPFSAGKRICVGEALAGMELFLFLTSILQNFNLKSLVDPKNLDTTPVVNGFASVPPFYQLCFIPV
Procedure: as §4

[2] = GSH human, in vitro adduct formation; assay type: in vitro ADME; parameters: key: NF = in vitro no significant adduct formation relative to control; settings: in vitro adduct formation relative to control
[3] = target: T5, recombinant human cathepsin E (Homo sapiens, UniProt P14091); test: Cathepsin E fluorescent substrate kinetic assay; assay type: biochemical; settings: pH 4.5, substrate MR121-CKLVFFAEDW
T5 construct: purchased R&D Systems
T5 sequence (P14091 54-396): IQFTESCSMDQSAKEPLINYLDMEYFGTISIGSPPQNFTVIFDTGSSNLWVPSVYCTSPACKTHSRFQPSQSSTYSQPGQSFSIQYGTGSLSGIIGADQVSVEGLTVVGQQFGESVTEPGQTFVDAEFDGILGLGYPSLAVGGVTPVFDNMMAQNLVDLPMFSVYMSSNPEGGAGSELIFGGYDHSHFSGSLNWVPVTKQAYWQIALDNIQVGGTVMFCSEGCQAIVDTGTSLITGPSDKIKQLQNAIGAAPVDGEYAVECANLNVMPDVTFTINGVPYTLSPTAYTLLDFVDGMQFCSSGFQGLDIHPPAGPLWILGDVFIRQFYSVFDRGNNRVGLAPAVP
From the text: as §1, §2, §3

CYP3A4 = target: T6, CYP3A4 (Homo sapiens, UniProt P08684); test: CYP inhibition assay, human liver microsomes; assay type: in vitro ADME
T6 construct: 0.2 mg/ml pooled human liver microsomes; from tissue; host or cells: pooled human liver microsomes
T6 sequence (P08684 whole entry): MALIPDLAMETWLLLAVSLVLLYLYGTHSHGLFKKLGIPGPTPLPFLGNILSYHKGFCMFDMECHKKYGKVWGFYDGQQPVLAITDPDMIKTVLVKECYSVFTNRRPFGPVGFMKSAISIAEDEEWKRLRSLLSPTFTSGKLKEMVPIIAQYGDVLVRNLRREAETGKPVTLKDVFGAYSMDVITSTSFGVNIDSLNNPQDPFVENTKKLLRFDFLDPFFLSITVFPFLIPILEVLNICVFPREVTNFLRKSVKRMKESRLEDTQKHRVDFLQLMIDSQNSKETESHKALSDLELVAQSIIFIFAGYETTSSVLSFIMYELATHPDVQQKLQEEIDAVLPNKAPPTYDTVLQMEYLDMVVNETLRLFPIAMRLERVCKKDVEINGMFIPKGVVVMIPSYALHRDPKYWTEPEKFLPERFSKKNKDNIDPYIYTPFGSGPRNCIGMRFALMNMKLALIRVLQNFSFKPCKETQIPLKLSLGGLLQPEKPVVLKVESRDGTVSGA
Procedure: as §4

[4] = human liver microsomes, substrate dextromethorphan, read-out: CYP IC50 2D6
[5] = human liver microsomes, substrate diclofenac, read-out: CYP IC50 2C9

T1 sequence (P56817 46-501): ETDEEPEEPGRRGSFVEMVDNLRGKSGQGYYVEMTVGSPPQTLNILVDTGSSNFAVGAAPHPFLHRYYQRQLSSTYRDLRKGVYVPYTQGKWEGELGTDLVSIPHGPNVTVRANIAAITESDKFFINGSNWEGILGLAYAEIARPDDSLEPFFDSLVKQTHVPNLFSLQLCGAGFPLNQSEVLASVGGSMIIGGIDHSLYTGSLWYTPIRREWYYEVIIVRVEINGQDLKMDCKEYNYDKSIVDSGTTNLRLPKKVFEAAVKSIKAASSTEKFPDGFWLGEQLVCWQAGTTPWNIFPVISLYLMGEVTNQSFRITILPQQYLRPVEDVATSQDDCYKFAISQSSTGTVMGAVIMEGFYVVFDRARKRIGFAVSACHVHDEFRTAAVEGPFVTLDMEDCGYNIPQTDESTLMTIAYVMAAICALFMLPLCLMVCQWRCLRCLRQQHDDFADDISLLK

SMILES | IC50 (BACE1) | IC50 [1] | IC50 [3] | further results
CN=[S@]1(=O)C[C@@](CF)(c2cc(-c3cc(-c4ncc(Cl)cn4)no3)ccc2F)N=C(N)C1(C)C [Example 1, (1S,3S)-5-amino-3-(5-(3-(5-chloropyrimidin-2-yl)isoxazol-5-yl)-2-fluorophenyl)-3-(fluoromethyl)-6,6-dimethyl-1-(methylimino)-3,6-dihydro-2H-1,4-thiazine 1-oxide 2,2,2-trifluoroacetate] | 0.095 µM | 75 µM | 139 µM | IC50 (CYP2D6; [4]): > 10 µM; IC50 (CYP2C9; [5]): > 10 µM; GSH human [2]: NF
CN=[S@@]1(=O)C[C@@](C)(c2cc(-c3cc(-c4ncc(Cl)cn4)no3)ccc2F)N=C(N)C12CCCC2 [Example 28, (6R,8R)-10-amino-8-(5-(3-(5-chloropyrimidin-2-yl)isoxazol-5-yl)-2-fluorophenyl)-8-methyl-6-(methylimino)-6-thia-9-azaspiro[4.5]dec-9-ene 6-oxide 2,2,2-trifluoroacetate] | 0.007 µM | 16 µM | 7 µM | IC50 (CYP2D6): > 10 µM; IC50 (CYP2C9): > 10 µM; IC50 (CYP3A4): > 10 µM
COc1cnc(-c2cc(-c3ccc(F)c([C@]4(C)C[S@@](=O)(=NCC(F)(F)F)C(C)(C)C(N)=N4)c3)on2)cn1 [Example 37, (1S,3R)-5-amino-3-(2-fluoro-5-(3-(5-methoxypyrazin-2-yl)isoxazol-5-yl)phenyl)-3,6,6-trimethyl-1-((2,2,2-trifluoroethyl)imino)-3,6-dihydro-2H-1,4-thiazine 1-oxide 2,2,2-trifluoroacetate] | 0.006 µM | – | – | –
CC1(C)C(N)=N[C@](C)(c2cc(-c3cc(-c4ncc(Cl)cn4)no3)ccc2F)C[S@@]1(=O)=NCC(F)(F)F [Example 38, (1S,3R)-5-amino-3-(5-(3-(5-chloropyrimidin-2-yl)isoxazol-5-yl)-2-fluorophenyl)-3,6,6-trimethyl-1-((2,2,2-trifluoroethyl)imino)-3,6-dihydro-2H-1,4-thiazine 1-oxide 2,2,2-trifluoroacetate] | 0.013 µM | – | – | –
COc1cnc(-c2cc(-c3ccc(F)c([C@]4(C)C[S@](=O)(=NCC(F)(F)F)C(C)(C)C(N)=N4)c3)on2)cn1 [Example 39, (1R,3R)-5-amino-3-(2-fluoro-5-(3-(5-methoxypyrazin-2-yl)isoxazol-5-yl)phenyl)-3,6,6-trimethyl-1-((2,2,2-trifluoroethyl)imino)-3,6-dihydro-2H-1,4-thiazine 1-oxide 2,2,2-trifluoroacetate] | 0.232 µM | – | – | –
CC1(C)C(N)=N[C@](C)(c2cc(-c3cc(-c4ncc(Cl)cn4)no3)ccc2F)C[S@]1(=O)=NCC(F)(F)F [Example 40, (1R,3R)-5-amino-3-(5-(3-(5-chloropyrimidin-2-yl)isoxazol-5-yl)-2-fluorophenyl)-3,6,6-trimethyl-1-((2,2,2-trifluoroethyl)imino)-3,6-dihydro-2H-1,4-thiazine 1-oxide 2,2,2-trifluoroacetate] | 0.037 µM | – | – | –
COc1cnc(-c2cc(-c3ccc(F)c([C@]4(C)C[S@@](=N)(=O)C(C)(C)C(N)=N4)c3)on2)cn1 [Example 41, (1R,3R)-5-amino-3-(2-fluoro-5-(3-(5-methoxypyrazin-2-yl)isoxazol-5-yl)phenyl)-1-imino-3,6,6-trimethyl-3,6-dihydro-2H-1,4-thiazine 1-oxide] | 0.008 µM | 45 µM | 56 µM | IC50 (CYP2D6; [4]): > 10 µM; IC50 (CYP2C9; [5]): > 10 µM; IC50 (CYP3A4; human liver microsomes, substrate midazolam, read-out: CYP IC50 3A4): > 10 µM

Reference: patent publication US10047081B2, “BACE1 inhibitors” (Hoffmann-La Roche Inc., priority 2015, dated 2018)
